The source of these data is US20120238449A1, “SYNERGISTIC HERBICIDAL COMPOSITION CONTAINING PENOXSULAM AND PYROXSULAM” (priority 2011, published 2012).

Common to all, as to type: in vivo
Experiment [1] has as its system wild buckwheat (Polygonum convolvulus, POLCO). The experiment can be described thus: Field trial, percent visual weed control of POLCO. Particulars: 39-51 days after application. The protocol:
(§1) These trials were conducted under field conditions in France, Poland and Syria. Trial sites were located in commercially grown crops wheat, barley and corn. The crops were grown using normal cultural practices for fertilization, seeding, and maintenance to ensure good growth of the crop and the weeds. The trials were conducted using typical small plot herbicide research methodology. Trial plots were between 1 to 2.5 meters (m) wide by 6 to 42 m long. All treatments were applied using a randomized complete block trial design with 2 to 4 replications per treatment. The trial sites had naturally occurring populations of weeds. The weed spectrum included, but was not limited to, wild oat (Avena fatua, AVEFA); Shepherd's purse (Capsella bursa-pastoris, CAPBP); common lambsquarter (Chenopodium album, CHEAL); barnyardgrass (Echinochloa crus-galli, ECHCG); ryegrass (Lolium spp., LOLSS); short-spiked canarygrass (Phalaris brachystachys, PHABR); awned canarygrass (Phalaris paradoxa, PHAPA); narrow-leaved plantain (Plantago lanceolata, PLALA); annual […] (Poa annua, POAAN); and wild buckwheat (Polygonum convolvulus, POLCO).
(§2) Treatments consisted of tank mixes of penoxsulam and pyroxsulam or pyroxsulam+cloquintocet (mexyl) applied in water. Where used, Actirob B adjuvant was applied at use rate of 0.2 to 1 liter per hectare (L/ha) with pyroxsulam containing treatments and in tankmixes. […]

Experiment [2] concerns awned canarygrass (Phalaris paradoxa, PHAPA). The experiment can be described thus: Field trial, percent visual weed control of PHAPA. Particulars: 28 to 56 days after application. The protocol: as §1, §2
The test system of experiment [3] is common lambsquarter (Chenopodium album, CHEAL). Nature of the experiment: Field trial, percent visual weed control of CHEAL. Particulars: 39-51 days after application. As to the method:
as §1, §2

In experiment [4] the test system is barnyardgrass (Echinochloa crus-galli, ECHCG). Nature of the experiment: Field trial, percent visual weed control of ECHCG. Particulars: 39-51 days after application. The protocol:
as §1, §2

Experiment [5] has as its system wild oat (Avena fatua, AVEFA). Nature of the experiment: Field trial, percent visual weed control of AVEFA. The following applies: 28 to 56 days after application. As to the method:
as §1, §2

Experiment [6] deals with narrow-leaved plantain (Plantago lanceolata, PLALA). Nature of the experiment: Field trial, percent visual weed control of PLALA. The following applies: 14 to 61 days after application. The protocol:
as §1, §2

Experiment [7] deals with ryegrass (Lolium spp., LOLSS). The experiment can be described thus: Field trial, percent visual weed control of LOLSS. Particulars: 14 to 61 days after application. The protocol: as §1, §2
Experiment [8] deals with short-spiked canarygrass (Phalaris brachystachys, PHABR). The experiment can be described thus: Field trial, percent visual weed control of PHABR. The following applies: 28 to 56 days after application. The protocol:
as §1, §2

In experiment [9] the test system is Shepherd's purse (Capsella bursa-pastoris, CAPBP). Nature of the experiment: Field trial, percent visual weed control of CAPBP. Particulars: 39-51 days after application. The protocol: as §1, §2
For experiment [10], the system named is annual blackgrass (Poa annua, POANN). The experiment can be described thus: Field trial, percent visual weed control of POANN. The following applies: 14 to 61 days after application. As to the method:
as §1, §2

For `COc1cnc(OC)n2nc(NS(=O)(=O)c3c(OCC(F)F)cccc3C(F)(F)F)nc12` [Penoxsulam, 2-(2,2-difluoroethoxy)-N-(5,8-dimethoxy-[1,2,4]triazolol1,5-clpyrimidin-2-yl)-6-(trifluoromethyl)benzenesulfonamide], the “Control of POLCO, Obs (Observed Response)” value in experiment [1] (penoxsulam 5 g ai/ha alone) is 50%. Moreover, in [2] (penoxsulam 20 g ai/ha alone), the “Control of PHAPA, Obs (Observed Response)” value stood at 0%. In addition, the “Control of CHEAL, Obs (Observed Response)” value in experiment [3] (penoxsulam 5 g ai/ha alone) was 10%. Besides, the “Control of ECHCG, Obs (Observed Response)” value in [4] (penoxsulam 5 g ai/ha alone) was determined as 0%. Besides, the “Control of AVEFA, Obs (Observed Response)” value in experiment [5] (penoxsulam 20 g ai/ha alone) was found to be 0%. Also, the “Control of PLALA, Obs (Observed Response)” value in experiment [6] (penoxsulam 20 g ai/ha alone) is 13%. The “Control of LOLSS, Obs (Observed Response)” value in experiment [7] (penoxsulam 20 g ai/ha alone) turned out to be 20%. In addition, the “Control of PHABR, Obs (Observed Response)” value in experiment [8] (penoxsulam 20 g ai/ha alone) is recorded as 0%. For the same molecule, the “Control of CAPBP, Obs (Observed Response)” value in experiment [9] (penoxsulam 5 g ai/ha alone) is recorded as 20%. Further, the “Control of POANN, Obs (Observed Response)” value in [10] (penoxsulam 20 g ai/ha alone) is on record as 17%.
In the case of `COc1cc(OC)n2nc(NS(=O)(=O)c3c(C(F)(F)F)ccnc3OC)nc2n1` [Pyroxsulam, N-(5,7-dimethoxy[1,2,4]triazolol1,5-alpyrimidin-2-yl)-2-methoxy-4-(trifluoromethyl)-3-pyridinesulfonamide], the “Control of POLCO, Obs (Observed Response)” value in experiment [1] (pyroxsulam 4 g ai/ha alone) stood at 35%. In [2] (pyroxsulam 18 g ai/ha alone), the “Control of PHAPA, Obs (Observed Response)” value is given as 80%. Moreover, in [3] (pyroxsulam 4 g ai/ha alone), the “Control of CHEAL, Obs (Observed Response)” value is 65%. Also, in experiment [4] (pyroxsulam 4 g ai/ha alone), the “Control of ECHCG, Obs (Observed Response)” value was determined as 65%. Besides, the “Control of AVEFA, Obs (Observed Response)” value in experiment [5] (pyroxsulam 18 g ai/ha alone) stood at 65%. Besides, the “Control of PLALA, Obs (Observed Response)” value in experiment [6] (pyroxsulam 20 g ai/ha alone) was 7%. In addition, the “Control of LOLSS, Obs (Observed Response)” value in experiment [7] (pyroxsulam 20 g ai/ha alone) is recorded as 0%. Besides, the “Control of PHABR, Obs (Observed Response)” value in experiment [8] (pyroxsulam 18 g ai/ha alone) worked out at 38%. The “Control of CAPBP, Obs (Observed Response)” value in experiment [9] (pyroxsulam 4 g ai/ha alone) is on record as 70%. In experiment [10] (pyroxsulam 20 g ai/ha alone), the “Control of POANN, Obs (Observed Response)” value worked out at 0%.
